{
  "source": "patent US7732470B2",
  "about": "“Compositions and methods for the treatment of renal and cardiovascular disease” (Medical College of Georgia Research Institute, priority 2006, dated 2010)",
  "system": "spontaneously hypertensive rats (SHR)",
  "test": "Blood pressure in spontaneously hypertensive rats",
  "assay_type": "in vivo, rat",
  "experimental": "As the 11-nonyloxy-undec-8(Z)-enoic acid derivatives lowered blood pressure in angiontensin hypertension, additional experiments were performed to determine if one of the derivatives could lower blood pressure in another hypertension model system. Male spontaneously hypertensive rats (SHRs) were maintained on a 12-hour light-dark cycle and allowed access to food and water ad libitum. These studies complied with the protocols for animal use outlined by the American Physiological Society and were approved by the institutional animal care and use committee.\nRats from 6 to 12 weeks of age were treated with 11-nonyloxy-undec-8(Z)-enoic acid derivative (TVR-I-276-21)( 2 mg/d i.p.) or vehicle for 8 days. Blood pressure was measured at Day 0, Day 4, and Day 8.\nThe blood pressure lowering effects of these analogs were analyzed in an established model of hepertension, the spontaneously hypertensive rats (SHR) using telemetry. […] As discussed in the previous example, additional derivatives with improved solubility and resistance to auto-oxidation and metabolism by sEH were designed using the pharmacophoric moiety of EET.\nAmidation of the carboxylic group with aspartic acid produced another EET analog 32 (SA-III-161-32). […] Amidation of the carboxylic group with lysine amino acid produced another EET analog 34 (SA-III-172-26).",
  "data": [
    {"compound": "CCCCCCCCCOCC/C=C\\CCCCCCC(=O)O", "note": "[11,12-ether EET-8-ZE, 11-nonyloxy-undec-8(Z)-enoic acid, reference compound]", "values": [
      {"measurement": "blood pressure lowering", "value": "failed to lower blood pressure"}
    ]},
    {"compound": "CCCCCCCCCOCC/C=C\\CCCCCCC(=O)OCCOCCOCCO", "note": "[TVR-I-276-21, (Z)-2-(2-(2-hydroxyethoxy)ethoxy)ethyl 11-(nonyloxy)undec-8-enoate]", "values": [
      {"measurement": "blood pressure", "setting": "2 mg/d i.p. for 8 days, measured Day 0, 4, 8, versus vehicle", "value": "did not increase to the same extent as those that received the vehicle treatment"}
    ]},
    {"compound": "CCCCCCCCCOCC/C=C\\CCCCCCC(=O)NC(CCCCN)C(=O)O", "note": "(centres unmarked) [SA-III-172-26, (Z)-6-amino-2-(11-(nonyloxy)undec-8-enamido)hexanoic acid]", "values": [
      {"measurement": "blood pressure lowering effect", "setting": "injected at 2 mg/day", "value": "minimal blood pressure lowering effect"}
    ]},
    {"compound": "CCCCCCCCCOCC/C=C\\CCCCCCC(=O)NC(CC(=O)O)C(=O)O", "note": "(centres unmarked) [SA-III-161-32, (Z)-2-(11-(nonyloxy)undec-8-enamido) succinic acid]", "values": [
      {"measurement": "blood pressure lowering effect", "setting": "injected at 3 mg/day for 5 days", "value": "demonstrated a blood pressure lowering effect"},
      {"measurement": "MAP Δ change at day 2 of injection", "setting": "injected at 3 mg/day for 5 days, telemetry", "value": "−8±1.3", "unit": "mmHg"}
    ]}
  ]
}
